Assay results taken from patent publication US20250222028A1, “ENGINEERED IMMUNE CELL PLATFORM” (Cancer Research Technology Limited, priority 2022, published 2025).

Experiments:
[1] = system: EL-4 tumour cells; test: LDH cytotoxicity assay, OT-I CD8+ CTLs co-cultured with Ova peptide-pulsed EL-4 target cells; type: cell-based, murine; settings: 10 μM, over a range of effector-to-target ratios, vs carrier control
Method: FIG. 1. L-type Cav channel agonists increase Gli1 expression and enhance specific cell killing by murine CD8+ CTLs. CD8^+ T cells were isolated from the spleen and inguinal lymph nodes of Rag2^−/− OT-I mice, and CTLs were generated. (A) Cells were restimulated on day 9/10 for 3 hours using plate-bound anti-CD3ε in the presence of indicated concentrations of FPL 64176 or carrier control. RNA was extracted and Gli1 expression was assessed by qRT-PCR. Data is n=3 independent experiments. us=unstimulated cells. (B) An LDH cytotoxicity assay was performed using OT-I CTLs. On day 7, CTLs were co-cultured with Ova peptide-pulsed EL-4 cells in the presence of 10 μM FPL 64176 (squares) or carrier control (circles). Data is n=4 independent experiments. (C) Updated experiment of (A). Data is now n=4 independent experiments. Data is normalised to Tbp as a reference gene. 0h=unstimulated cells. (D) Same data as (B) represented differently. […] Error bars indicate SD. p values were calculated using an unpaired two-tailed Student's t test (C) or a two-way ANOVA (B/D). * indicates p<0.05, ** indicates p<0.01, **** indicates p<0.0001.
FIG. 11. […] (A) Quantitative analysis of live cell numbers. […] (E) Quantitative analysis of live cell numbers. […]
To ensure that the use of L-type Cav agonist is not adversely affecting immune cells, general cell functions were assessed. […]

[2] = system: K562 target cells; test: Flow-cytometry based killing assay, human Vγ9Vδ2 gammadelta T cells with K562 target cells; type: cell-based; settings: 10 μM, killing assessed after 24 hours, vs EtOH carrier control
Method: FIG. 12. GLI1 is important for tumour cell killing of human Vγ9Vδ2 gammadelta T cells and treatment with L-type voltage gated Ca2+ channel agonist FPL 64176 increases killing capacity. PBMCs were isolated from Buffy Coats of healthy donors using SepMate PBMC Isolation Tubes. Vγ9Vδ2 expansion was induced by plating PBMCs at 1×10^6 concentration with 1 μM of Zoledronate in the presence of 100 IU/mL IL-2 and 120 IU/mL IL-15. Cells were split every 2-3 days from day 6 until day 20. Killing assays were conducted between day 16-20. (A) Vγ9Vδ2 T lymphocytes were incubated with Gli1/2 inhibitor GANT61 or EToH (carrier control) overnight and subsequently co-cultured with K562 target cells for 24 h at the indicated effector to target ratios and subjected to a flow-cytometry based killing assay. n=1 individual donor. (B) Vγ9Vδ2 cells were pre-incubated with 10 μM FPL 64176 or EToH (carrier control) before being co-cultured with K562 target cells at indicated effector to target ratios and subjected to a flowcytometric cytotoxicity assay in the presence of 10 μM FPL 64176 or EToH (carrier control). Killing was assessed after 24 hours. Tumour cell killing normalised to carrier treated cells at a 10:1 effector:target ratio. n=4 individual healthy donors from 2 independent experiments. […]

## COC(=O)c1c(C)[nH]c(C)c1C(=O)c1ccccc1Cc1ccccc1 [FPL 64176]
[1]
  improvement of specific cell killing of EL-4 tumour cells: at least 100%
[2]
  killing by gammadelta T cells: increased killing
